This note sets out measurements from patent US7772252B2, “Heterocyclic substituted carbonyl derivatives and their use as dopamine D3 receptor ligands” (Aventis Pharmaceuticals Inc., priority 2001, dated 2010).

SMILES strings stand for the structures.

The target in the first assay is T1, cloned human dopamine D3 receptors (Homo sapiens, UniProt P35462).
T1 construct: expressed in transfected cells; membrane homogenate
T1 sequence (P35462 whole entry): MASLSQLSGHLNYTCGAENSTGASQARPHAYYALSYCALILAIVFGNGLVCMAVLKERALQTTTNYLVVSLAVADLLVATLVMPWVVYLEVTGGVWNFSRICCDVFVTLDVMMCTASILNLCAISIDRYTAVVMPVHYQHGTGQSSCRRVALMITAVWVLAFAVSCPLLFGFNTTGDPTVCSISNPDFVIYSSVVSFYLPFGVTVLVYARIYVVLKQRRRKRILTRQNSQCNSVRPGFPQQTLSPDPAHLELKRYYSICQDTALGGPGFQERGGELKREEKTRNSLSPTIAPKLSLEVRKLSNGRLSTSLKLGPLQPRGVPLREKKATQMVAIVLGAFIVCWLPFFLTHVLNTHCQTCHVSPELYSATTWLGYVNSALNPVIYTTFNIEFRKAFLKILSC
Description: [N-Methyl-3H]Spiroperidol binding to cloned human dopamine D3 receptors. The note with it: read-out: D3 Ki. In short, it runs like this:
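Radioligand displacement with [N-methyl-3H]spiroperidol was run on membranes from a high-expressing CHO clone carrying human D3. Membranes were prepared in 10% DMSO and stored at −80° C.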
For the compound `C[C@H]1CC[C@H](NC(=O)[C@@H]2CC[C@H]2CN2CCCN(c3csc4cc(F)ccc34)CC2)CC1` (racemic) [compound 829997], the Ki was 10.4 nM.

Turning to `Cc1ccc(CN2CCC(NC(=O)[C@@H]3C[C@H]3CN3CCC(c4noc5ccsc45)CC3)CC2)cc1` [compound 833482], the Ki stood at 0.962 nM. On to `Cn1nc(C2CCN(C[C@@H]3C[C@H]3C(=O)N3CCC(N4CCCCC4)CC3)CC2)c2cccc(C(F)(F)F)c21` [compound 833091], for which the Ki is 118 nM. As to `CC1CCC(NC(=O)C2CC2CN2CCN(c3onc4c3CCc3ccccc3-4)CC2)CC1` (racemic) [compound 830121], the Ki was determined as 47.1 nM. On the same count and under the same terms, under `C[C@H]1CC[C@H](N2CC(CN3CCN(c4noc5ccsc45)CC3)CC2=O)CC1` (stereo partly drawn) [832831DA] stands 1150 nM; under `O=C(NC1CCN(Cc2cccnc2)CC1)C1CC1CN1CCC(c2noc3ccsc23)CC1` (racemic) [compound 832394], 8.32 nM. The same measure, in the same setting: under `CCC1CCC(NC(=O)C2CC2CN2CCC(n3c(=O)[nH]c4ccccc43)CC2)CC1` (racemic) [compound 827250] stands 45.2 nM; under `O=C(NCCCN1CCCCC1)[C@@H]1C[C@H]1CN1CCC(c2cc3ccccc3s2)CC1` [compound 832714], 12.4 nM; under `O=C([C@@H]1C[C@H]1CN1CCN(c2csc3cc(C(F)(F)F)ccc23)CC1)N1CCN(Cc2ccccc2)CC1` [compound 831883], 48.1 nM.

On to `O=C(NC1CCCCC1)[C@H](O)CCN1CCC(c2noc3ccsc23)CC1` [compound 830573], for which the Ki turned out to be 547 nM.

Take `O=C(NCCc1ccccn1)[C@@H]1C[C@H]1CN1CCC(c2noc3ccsc23)CC1` [compound 831274]: the Ki was determined as 17.4 nM.

For the compound `O=C(NCc1ccc2ccccc2c1)C1CC1CN1CCC(c2noc3ccsc23)CC1` (racemic) [compound 831454], the Ki came out at 1.86 nM. Still for that read-out and setting: as for `O=C(C1CC1CN1CCC(c2noc3ccsc23)CC1)N1CCN(c2ncccn2)CC1` (racemic) [compound 827394], the figure is 391 nM; as for `O=C(NCCCN1CCCCC1)[C@@H]1C[C@H]1CN1CCC(c2noc3cc(C(F)(F)F)ccc23)CC1` [A002287764], 0.48 nM. The same measure, in the same setting: as for `O=C(NCc1ccco1)C1CC1CN1CCC(c2noc3ccsc23)CC1` (racemic) [compound 827393], the figure is 391 nM.

Consider `C[C@H]1CC[C@H](NC(=O)[C@@H]2C[C@H]2CN2CCC(c3n[nH]c4cc(C(F)(F)F)ccc34)CC2)CC1` [compound 833941], for which the Ki was 8.98 nM.

Turning to `O=C(NCCc1ccc(F)cc1)C1CC1CN1CCC(c2noc3ccsc23)CC1` (racemic) [compound 831802], the Ki was determined as 13.4 nM. Consider `COc1ccccc1CN1CCC(NC(=O)[C@@H]2C[C@H]2CN2CCC(c3noc4ccsc34)CC2)CC1` [compound 832724], for which the Ki stood at 1.44 nM.

`CC(C)(C)OC(=O)N1CCC(NC(=O)C2CC2CN2CCC(c3noc4ccsc34)CC2)CC1` (racemic) [compound 832391]: the Ki worked out at 77.9 nM. On the same count and under the same terms, under `O=C(C1CC1CN1CCC(c2noc3ccsc23)CC1)N1CCN(Cc2ccccc2)CC1` (racemic) [compound 832153] stands 30.7 nM; under `O=C(N[C@H]1CC[C@H](O)CC1)[C@@H]1C[C@H]1CN1CCN(c2nn(-c3cccc(F)c3)c3ccsc23)CC1` [A002243404], 492 nM; under `O=C(C1CC1CN1CCC(c2noc3ccsc23)CC1)N1CCN(Cc2ccc(Cl)cc2)CC1` (racemic) [compound 832156], 0.315 nM. Same read-out and setting: as for `CCC1CCC(NC(=O)C2CC2CN2CCN(Cc3ccc4c(c3)OCO4)CC2)CC1` (racemic) [compound 827240], the figure is 152 nM; as for `CCC1CCC(NC(=O)C2CC2CN2CCC(c3cc4cc(OC)cc(Br)c4o3)CC2)CC1` (racemic) [compound 830112], 54 nM.

Consider `COc1ccc2c(c1)c(N1CCN(C[C@@H]3C[C@H]3C(=O)NCCCN3CCCCC3)CC1)nn2C` [compound 833120], for which the Ki is 138 nM.

On to `COc1cccc2c(C3CCN(C[C@@H]4C[C@H]4C(=O)NCCCc4ccccc4)CC3)noc12` [compound 832102], for which the Ki was determined as 81.5 nM. `O=C(Nc1ccccn1)C1CC1CN1CCC(c2noc3ccsc23)CC1` (racemic) [compound 827397]: the Ki came out at 111 nM. Still for that read-out and setting: as for `CC1CCC(NC(=O)C2CC2CN2CCN(c3n[nH]c4ccccc34)CC2)CC1` (racemic) [compound 830116], the figure is 13.1 nM. As for `O=C(NCc1cccc(OC(F)(F)F)c1)[C@@H]1C[C@H]1CN1CCN(c2csc3cc(C(F)(F)F)ccc23)CC1` [compound 833062], the Ki turned out to be 55.4 nM.

As to `O=C([C@@H]1C[C@H]1CN1CCC(c2noc3ccsc23)CC1)N1CCC(n2c(=O)[nH]c3ccccc32)CC1` [compound 832531], the Ki came out at 67.7 nM. Same read-out and setting: under `O=C(NCC1CCNCC1)[C@@H]1C[C@H]1CN1CCN(c2csc3cc(C(F)(F)F)ccc23)CC1` [compound 832859] stands 14.3 nM; under `COc1ccc2c(c1)c(N1CCN(C[C@@H]3C[C@H]3C(=O)N3CCN(C(C)C)CC3)CC1)nn2C` [compound 833122], 52.9 nM; under `O=C(NC1CCN(C(=O)Nc2ccc(Cl)cc2)CC1)C1CC1CN1CCC(c2noc3ccsc23)CC1` (racemic) [832575ES], 4.06 nM. Same read-out and setting: under `COc1c(F)ccc2c(C3CCN(CCC4(C(=O)NCCCN5CCCCC5)CC4)CC3)noc12` [compound 833365] stands 166 nM; under `C[C@H]1CC[C@H](NC(=O)[C@@H]2C[C@H]2CN2CCN(c3nn(-c4ccc(F)cc4)c4ccccc34)CC2)CC1` [compound 833701], 1.28 nM. The same measure, in the same setting: as for `O=C(C1CC1CN1CCC(c2noc3ccsc23)CC1)N1CCN(c2ccc(OCc3ccccc3)cc2)CC1` (racemic) [compound 832059], the figure is 4.13 nM; as for `CC(C)COC(=O)n1c(CCCNC(=O)C2CC2CN2CCC(c3noc4ccsc34)CC2)nc2ccccc21` (racemic) [compound 831621], 70.3 nM; as for `CN1CCN(C(=O)C2CC2CN2CCC(c3noc4ccsc34)CC2)CC1` (racemic) [compound 829590], 109 nM.

For the compound `O=C(NC1CCN(Cc2ccc(C(F)(F)F)cc2)CC1)[C@@H]1C[C@H]1CN1CCC(c2noc3ccsc23)CC1` [compound 833160], the Ki was 2.09 nM.

Turning to `O=C(NC1CCN(Cc2cc(F)ccc2F)CC1)[C@@H]1C[C@H]1CN1CCC(c2noc3ccsc23)CC1` [compound 833168], the Ki worked out at 3.11 nM. On the same count and under the same terms, under `O=C([C@@H]1C[C@H]1CN1CCN(c2csc3cc(C(F)(F)F)ccc23)CC1)N1CCC(CCN2CCCC2)CC1` [compound 833514] stands 0.36 nM; under `Cn1nc(N2CCN(C[C@@H]3C[C@H]3C(=O)NCCCn3cnc4ccccc43)CC2)c2sccc21` [A002202403], 86.8 nM; under `CC1(C)CC(NC(=O)C2CC2CN2CCC(c3noc4ccsc34)CC2)CC(C)(C)N1` (racemic) [compound 832187], 19.1 nM.

As for `CC(=O)N1CCC(CNC(=O)[C@@H]2C[C@H]2CN2CCN(c3csc4cc(C(F)(F)F)ccc34)CC2)CC1` [compound 833065], the Ki worked out at 692 nM. Consider `CC(C)(C)OC(=O)N1CCC(CNC(=O)[C@@H]2C[C@H]2CN2CCC(c3nn(CC(F)(F)F)c4ccsc34)CC2)CC1` [A002439266], for which the Ki came out at 66 nM. Same read-out and setting: under `O=C(NCC1CCNCC1)[C@@H]1C[C@H]1CN1CCC(c2noc3ccsc23)CC1` [compound 833386] stands 36.5 nM. `COc1cccc2c(C3CCN(C[C@@H]4C[C@H]4C(=O)NCCCn4ccnc4)CC3)noc12` [compound 831880]: the Ki came to 100 nM.

For the compound `CN1CCN(CCCNC(=O)C2CC2CN2CCC(c3noc4ccsc34)CC2)CC1` (racemic) [compound 831741], the Ki was determined as 125 nM. In the case of `O=C(N[C@H]1CC[C@H](O)CC1)C1(CCN2CCN(c3csc4cc(C(F)(F)F)ccc34)CC2)CC1` [compound 832520], the Ki came out at 141 nM. Still for that read-out and setting: under `O=C(NCCc1cccc(F)c1)C1CC1CN1CCC(c2noc3ccsc23)CC1` (racemic) [compound 831801] stands 11.2 nM; under `O=C(NC1CCN(Cc2cc(Cl)cc(Cl)c2)CC1)C1CC1CN1CCC(c2noc3ccsc23)CC1` (racemic) [compound 831819], 0.1 nM; under `CCC1CCC(NC(=O)C2CC2CN2CCC(c3noc4cc(Cl)ccc34)CC2)CC1` (racemic) [compound 829363], 63.9 nM.

Consider `O=C(NC1CCN(Cc2ccc(Cl)cc2)CC1)C1CC1CN1CCC(c2noc3ccsc23)CC1` (racemic) [compound 831997], for which the Ki came out at 3.55 nM.

Take `O=C(NCCc1ccc(F)cc1)[C@@H]1C[C@H]1CN1CCC(c2noc3ccsc23)CC1` [compound 832725]: the Ki came to 4.22 nM. For `CC[C@H]1CC[C@H](NC(=O)C2(CCN3CCN(c4csc5cc(C(F)(F)F)ccc45)CC3)CC2)CC1` [compound 832517], the Ki amounted to 173 nM. On to `CC1CCC(NC(=O)C2CCC2CN2CCC(c3noc4ccsc34)CC2)CC1` (racemic) [compound 829830], for which the Ki turned out to be 65.3 nM. Consider `O=C(NCCCn1ccnc1)[C@@H]1C[C@H]1CN1CCN(c2csc3cc(Cl)ccc23)CC1` [compound 834172], for which the Ki was determined as 0.837 nM. Same read-out and setting: under `Cc1cccc(CN2CCC(NC(=O)[C@@H]3C[C@H]3CN3CCN(c4csc5cc(C(F)(F)F)ccc45)CC3)CC2)c1` [compound 832789] stands 3.05 nM. Still for that read-out and setting: as for `O=C(NCCCN1CCOCC1)C1(CCN2CCC(c3noc4ccsc34)CC2)CC1` [compound 832240], the figure is 186 nM.

Regarding `Cc1cc(C)c(CN2CCN(C(=O)C3CC3CN3CCC(c4noc5ccsc45)CC3)CC2)c(C)c1` (racemic) [compound 832194], the Ki was 23 nM. Still for that read-out and setting: under `CN1CCCC1CCNC(=O)[C@@H]1C[C@H]1CN1CCN(c2csc3cc(C(F)(F)F)ccc23)CC1` (mixture of isomers) [compound 831884] stands 1.94 nM.

Staying with this assay, now noted: read-out: d3Ki.
On to `O=C(CCCN1CCN(c2csc3cc(F)ccc23)CC1CCCc1ccccc1)N(CCO)C1CCCCC1` (stereo not drawn) [compound 827111], for which the Ki was determined as 14.3 nM.

With `CC1(C)CCCN(C(=O)CCCN2CCN(c3csc4cc(C(F)(F)F)ccc34)CC2)C1` [compound 826817], the Ki amounted to 20 nM.
